Laboratory results from patent US20100137313A1 (ASTRAZENECA AB, priority 2008, published 2010).

Target: S. pneumoniae Topoisomerase IV ATPase (ParE) (Streptococcus pneumoniae serotype 4, UniProt Q59961)
Assay: S. pneumoniae Topoisomerase IV ATPase inhibition
Format: biochemical
Conditions: values marked * are an average of two or more data points, read-out: % Inh (13 μM) of S. pneumoniae Topoisomerase IV ATPase
In short: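 Phosphate-release ATPase assay: 1.25 nM ParE, 160 μM ATP, DNA-stimulated. Quench with malachite green/molybdate in 1 M HCl, read 650 nm; IC50 from 10-point dose series.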

S. pneumoniae Topoisomerase IV ATPase (ParE), sequence (Q59961 whole entry): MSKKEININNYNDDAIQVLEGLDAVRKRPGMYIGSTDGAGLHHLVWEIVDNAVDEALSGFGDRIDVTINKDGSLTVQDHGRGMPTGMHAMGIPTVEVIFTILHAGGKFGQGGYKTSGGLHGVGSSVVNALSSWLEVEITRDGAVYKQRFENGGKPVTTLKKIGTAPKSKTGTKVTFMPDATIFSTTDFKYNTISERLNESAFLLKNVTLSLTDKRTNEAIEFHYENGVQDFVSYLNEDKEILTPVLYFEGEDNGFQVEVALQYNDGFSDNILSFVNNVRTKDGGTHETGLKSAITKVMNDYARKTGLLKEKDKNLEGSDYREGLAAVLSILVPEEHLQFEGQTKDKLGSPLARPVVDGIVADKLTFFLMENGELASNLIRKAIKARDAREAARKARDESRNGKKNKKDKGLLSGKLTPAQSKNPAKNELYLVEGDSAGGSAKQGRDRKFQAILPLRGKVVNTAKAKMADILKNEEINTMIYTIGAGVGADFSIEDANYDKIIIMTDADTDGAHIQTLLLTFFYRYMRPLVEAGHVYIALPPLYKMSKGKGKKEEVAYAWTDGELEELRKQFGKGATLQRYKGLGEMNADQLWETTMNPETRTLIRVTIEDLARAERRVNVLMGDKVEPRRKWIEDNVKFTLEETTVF

SMILES	inhibition at 13 µM [%]
CCOC(=O)c1cncc(-c2cnc(Nc3ccc(F)c(Cl)c3)nc2NCCC(N)=O)c1 [Example 99, 5-[4-(2-Carbamoyl-ethylamino)-2-(3-chloro-4-fluoro-phenylamino)-pyrimidin-5-yl]-nicotinic acid ethyl ester]	82
CNC(=O)c1cc(-c2cnc(Nc3ccc(F)c(Cl)c3)nc2-n2nc(C(F)(F)F)cc2C)cnc1OC [Example 1103, 5-(2-(3-chloro-4-fluorophenylamino)-4-(5-methyl-3-(trifluoromethyl)-1H-pyrazol-1-yl)pyrimidin-5-yl)-2-methoxy-N-methylnicotinamide]	76
CCOC(=O)/C=C/c1cccc(-c2cnc(Nc3ccc(F)c(Cl)c3)nc2NCCCOC)c1 [Example 167, (E)-ethyl 3-(3-(2-(3-chloro-4-fluorophenylamino)-4-(3-methoxypropylamino)pyrimidin-5-yl)phenyl)acrylate]	31.1
COc1ncc(-c2cnc(Nc3cc(C)cc(F)c3)nc2-n2nc(C(F)(F)F)cc2C)cc1C(=O)O [Example 755, 5-{2-[(3-fluoro-5-methylphenyl)amino]-4-[5-methyl-3-(trifluoromethyl)-1H-pyrazol-1-yl]pyrimidin-5-yl}-2-methoxypyridine-3-carboxylic acid]	100
Cn1cc(-c2cnc(Nc3ccc(F)c(Cl)c3)nc2-n2ccc(C(F)(F)F)n2)cc(C(=O)NS(C)(=O)=O)c1=O [Example 1048, 5-(2-(3-Chloro-4-fluorophenylamino)-4-(3-(trifluoromethyl)-1H-pyrazol-1-yl)pyrimidin-5-yl)-1-methyl-N-(methylsulfonyl)-2-oxo-1,2-dihydropyridine-3-carboxamide]	100
COc1cc(Nc2ncc(-c3ccc4c(c3)C(=O)NS4(=O)=O)c(-n3nc(C(F)(F)F)cc3C)n2)cc(OC)c1 [Example 830, 5-{2-[(3,5-dimethoxyphenyl)amino]-4-[5-methyl-3-(trifluoromethyl)-1H-pyrazol-1-yl]pyrimidin-5-yl}-1,2-benzothiazol-3(2H)-one 1,1-dioxide]	100
COc1ncc(-c2cnc(Nc3cc(C)cc(Cl)c3)nc2-n2ccc(C(F)(F)F)n2)cc1C(=O)NS(C)(=O)=O [Example 800, 5-{2-[(3-chloro-5-methylphenyl)amino]-4-[3-(trifluoromethyl)-1H-pyrazol-1-yl]pyrimidin-5-yl}-2-methoxy-N-(methylsulfonyl)pyridine-3-carboxamide]	99
CCOC(=O)CNc1nc(Nc2ccc(F)c(Cl)c2)ncc1-c1cncc(C(=O)OCC)c1 [Example 111, ethyl 5-[2-[(3-chloro-4-fluorophenyl)amino]-4-[(2-ethoxy-2-oxoethyl)amino]pyrimidin-5-yl]pyridine-3-carboxylate]	-13.9
O=S1(=O)CCN(CCNc2nc(Nc3ccc(F)c(Cl)c3)ncc2-c2cncnc2)CC1 [Example 47, N^2-(3-chloro-4-fluorophenyl)-N^4-[2-(1,1-dioxo-1,4-thiazinan-4-yl)ethyl]-5-pyrimidin-5-ylpyrimidine-2,4-diamine]	74.8
Cc1cc(C)cc(Nc2ncc(-c3cc(C(=O)O)c(=O)n(C)c3)c(-n3nc(C(F)(F)F)cc3C)n2)c1 [Example 1166, 5-(2-(3,5-dimethylphenylamino)-4-(5-methyl-3-(trifluoromethyl)-1H-pyrazol-1-yl)pyrimidin-5-yl)-1-methyl-2-oxo-1,2-dihydropyridine-3-carboxylic acid]	100
O=C(O)c1cc(-c2cnc(Nc3ccc(F)c(Cl)c3)nc2-n2ccc(C(F)(F)F)n2)c[nH]c1=O [Example 1092, 5-(2-(3-Chloro-4-fluorophenylamino)-4-(3-(trifluoromethyl)-1H-pyrazol-1-yl)pyrimidin-5-yl)-2-oxo-1,2-dihydropyridine-3-carboxylic acid]	100
O=C(O)CCC(=O)Nc1cccc(-c2cnc(Nc3ccc(F)c(Cl)c3)nc2N2CCOCC2)c1 [Example 482, 4-[(3-{2-[(3-chloro-4-fluorophenyl)amino]-4-(morpholin-4-yl)pyrimidin-5-yl}phenyl)amino]-4-oxobutanoic acid]	99
